Results as given in paper PMC3658134 (Biochemistry, 2011).
Like-named read-outs stand apart in the source and are kept apart here.

Legend:
Assay type in all cases: biochemical
wild-type TGR (SmTGR) = molecular target: T1, wild-type TGR (SmTGR) (Schistosoma mansoni, UniProt Q962Y6); assay: Substrate specificity, NADPH consumption, wild-type TGR
T1 sequence (Q962Y6 1-598): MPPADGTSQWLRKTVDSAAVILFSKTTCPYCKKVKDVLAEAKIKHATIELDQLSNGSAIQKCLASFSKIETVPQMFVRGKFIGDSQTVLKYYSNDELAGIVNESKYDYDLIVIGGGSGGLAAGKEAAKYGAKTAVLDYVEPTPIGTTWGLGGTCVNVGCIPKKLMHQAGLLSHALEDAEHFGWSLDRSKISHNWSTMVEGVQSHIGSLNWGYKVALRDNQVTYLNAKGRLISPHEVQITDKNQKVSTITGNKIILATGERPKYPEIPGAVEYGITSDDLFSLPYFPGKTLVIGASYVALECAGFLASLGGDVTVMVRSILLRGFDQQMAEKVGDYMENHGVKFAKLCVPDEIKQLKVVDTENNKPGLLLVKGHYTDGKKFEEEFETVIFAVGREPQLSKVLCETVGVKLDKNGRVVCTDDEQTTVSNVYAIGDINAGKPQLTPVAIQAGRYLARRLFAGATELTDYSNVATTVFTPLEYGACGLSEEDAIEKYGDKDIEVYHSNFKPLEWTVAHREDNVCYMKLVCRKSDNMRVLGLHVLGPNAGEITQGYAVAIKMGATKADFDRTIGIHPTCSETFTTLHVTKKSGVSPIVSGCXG

Sec597Cys SmTGR [1] = molecular target: T2, Sec597Cys SmTGR (Schistosoma mansoni, UniProt Q962Y6); assay: Substrate specificity, NADPH consumption, Sec597Cys; conditions: 100 μM NADPH
WT SmTGR [2] = molecular target: T3, WT SmTGR (Schistosoma mansoni, UniProt Q962Y6); assay: Inhibition of TrxR activity of WT SmTGR
WT SmTGR [3] = molecular target: T3, WT SmTGR; assay: Inhibition of DTNB activity of WT SmTGR
Sec597Cys SmTGR [4] = molecular target: T2, Sec597Cys SmTGR; assay: Inhibition of DTNB activity of Sec597Cys
WT SmTGR [5] = molecular target: T3, WT SmTGR; assay: Inhibition of GR activity of WT SmTGR
Sec597Cys SmTGR [6] = molecular target: T2, Sec597Cys SmTGR; assay: Inhibition of TrxR activity of Sec597Cys
Sec597Cys SmTGR [7] = molecular target: T2, Sec597Cys SmTGR; assay: Inhibition of GR activity of Sec597Cys
[8] = Sec597Cys 100 or 150 nM, ND = undetectable activity
[9] = WT enzyme 20 or 100 nM, 100 μM NADPH, ND = undetectable activity

With O=[Se](O)O [NaSeO3, sodium selenite] the Km (wild-type TGR (SmTGR); WT enzyme 100 nM, 100 μM NADPH) was 0.0087 ± 0.0025 mM and the Km (Sec597Cys SmTGR [1]; Sec597Cys 100 nM) was 0.0173 ± 0.0044 mM.
Compound OO [H2O2, hydrogen peroxide] has a Km (wild-type TGR (SmTGR)) of 17.3 ± 7.6 mM, a Vmax (wild-type TGR (SmTGR); pH 7.4) of 4.6 ± 0.7 s⁻¹ and a Km (Sec597Cys SmTGR [1]; [8]) of 52.4 ± 9.8 mM.
O=C(O)CCCC[C@@H]1CCSS1 (racemic) [Lipoic acid, lipoic acid] was tested, and the Km (wild-type TGR (SmTGR); [9]) was 2.9 ± 0.7 mM and the Km (Sec597Cys SmTGR [1]; [8]) was 9.3 ± 2.9 mM.
With N#Cc1c(-c2ccccc2)no[n+]1[O-] [Fx, 4-phenyl-1,2,5-oxadiazole-3-carbonitrile-2-oxide] the IC50 (WT SmTGR [2]) was 5.4 µM, the IC50 (WT SmTGR [3]) was 3 µM and the IC50 (Sec597Cys SmTGR [4]) was 6 µM. It also gave an IC50 (WT SmTGR [5]) of 3.2 µM, an IC50 (Sec597Cys SmTGR [6]) of 2.1 µM and an IC50 (Sec597Cys SmTGR [7]) of 2.5 µM.
CC(C)(C)OO [t-Butyl-OOH, tert-butyl hydroperoxide] gave a Km (wild-type TGR (SmTGR); [9]) of 75 ± 10 mM and a Km (Sec597Cys SmTGR [1]; [8]) of 53 ± 5 mM.
With O=C1NC(=O)C(=O)C(=O)N1 [Alloxan, alloxan] the Km (Sec597Cys SmTGR [1]; [8]) was 0.88 ± 0.07 mM.
